In patent US20160235735A1 (Teva Pharmaceutical Industries, Ltd., priority 2012, published 2016):
“And” between values parts separate entries of the source, which are not always exact repeats. Identical values can stand only once.

Columns and labels:
MOG-induced EAE Mice = assay: MOG-induced EAE in mice: laquinimod alone or in combination with fampridine; assay type: in vivo, C57BL/6 mice; settings: for Incidence / Mortality: 30 days; for % inhibition 3: according to GMS; for % inhibition 2: according to MMS; for % inhibition 1: according to incidence; for GMS value: group mean score; for MMS value: mean maximal score
[1] = in vivo; cited from earlier work
[2] = cited from earlier work
[3] = in vivo; cited from earlier work; remark: listed apart in the source
[4] = 4AP 2.5 mg/kg oral QD, compared to vehicle
[5] = 4AP 5 mg/kg oral QD, compared to vehicle
[6] = laquinimod 10 mg/kg oral QD, compared to vehicle
[7] = laquinimod 25 mg/kg oral QD, compared to LAQ (10 mg/kg)
[8] = laquinimod 25 mg/kg oral QD, compared to vehicle

Nc1ccncc1 [4AP, pyridin-4-amine]
Incidence (MOG-induced EAE Mice; 4AP 2.5 mg/kg oral QD): 15/15 | Mortality (MOG-induced EAE Mice; 4AP 2.5 mg/kg oral QD): 0/15 | % inhibition 3 (MOG-induced EAE Mice; [4]): 24.1% | % inhibition 3 (MOG-induced EAE Mice; 4AP 2.5 mg/kg oral QD, compared to vehicle, listed as fampridine): 24.1% | % inhibition 2 (MOG-induced EAE Mice; [4]): 10.2% | % inhibition 1 (MOG-induced EAE Mice; [4]): 0% | GMS value (MOG-induced EAE Mice; 4AP 2.5 mg/kg oral QD): 2.2 ± 0.5 | MMS value (MOG-induced EAE Mice; 4AP 2.5 mg/kg oral QD): 3.5 ± 0.6 | Incidence (MOG-induced EAE Mice; 4AP 5 mg/kg oral QD): 15/15 | Mortality (MOG-induced EAE Mice; 4AP 5 mg/kg oral QD): 0/15 | % inhibition 3 (MOG-induced EAE Mice; [5]): 34.5% | % inhibition 3 (MOG-induced EAE Mice; 4AP 5 mg/kg oral QD, compared to vehicle, listed as fampridine): 34.5% | % inhibition 2 (MOG-induced EAE Mice; [5]): 12.8% | % inhibition 1 (MOG-induced EAE Mice; [5]): 0% | GMS value (MOG-induced EAE Mice; 4AP 5 mg/kg oral QD): 1.9 ± 0.6 | MMS value (MOG-induced EAE Mice; 4AP 5 mg/kg oral QD): 3.4 ± 0.6 | safety issues [1]: safety issues related to seizure induction | solubility in aqueous solution ([2]; chloride salt): readily soluble | lipid solubility ([2]; unionized form): lipid-soluble

CCN(C(=O)c1c(O)c2c(Cl)cccc2n(C)c1=O)c1ccccc1 [LAQ, Laquinimod]
Incidence (MOG-induced EAE Mice; laquinimod 10 mg/kg oral QD): 10/15 and 15/15 | Mortality (MOG-induced EAE Mice; laquinimod 10 mg/kg oral QD): 0/15 | % inhibition 3 (MOG-induced EAE Mice; [6]): 58.6% | % inhibition 3 (MOG-induced EAE Mice; laquinimod 10 mg/kg oral QD, compared to vehicle, listed as laquinimod): 58.6% | % inhibition 2 (MOG-induced EAE Mice; [6]): 38.5% | % inhibition 1 (MOG-induced EAE Mice; [6]): 33.3% | GMS value (MOG-induced EAE Mice; laquinimod 10 mg/kg oral QD): 1.2 ± 1.0 | MMS value (MOG-induced EAE Mice; laquinimod 10 mg/kg oral QD): 2.4 ± 1.9 | Incidence (MOG-induced EAE Mice; laquinimod 25 mg/kg oral QD): 4/15 | Mortality (MOG-induced EAE Mice; laquinimod 25 mg/kg oral QD): 0/15 | % inhibition 3 (MOG-induced EAE Mice; [7]): 66.7% | % inhibition 3 (MOG-induced EAE Mice; [8]): 86.2% | % inhibition 3 (MOG-induced EAE Mice; laquinimod 25 mg/kg oral QD, compared to vehicle, listed as laquinimod): 86.2% | % inhibition 2 (MOG-induced EAE Mice; [7]): 70.8% | % inhibition 2 (MOG-induced EAE Mice; [8]): 82.1% | % inhibition 1 (MOG-induced EAE Mice; [7]): 60.0% | % inhibition 1 (MOG-induced EAE Mice; [8]): 73.3% | GMS value (MOG-induced EAE Mice; laquinimod 25 mg/kg oral QD): 0.4 ± 0.7 | MMS value (MOG-induced EAE Mice; laquinimod 25 mg/kg oral QD): 0.7 ± 1.3 | oral bioavailability [3]: high oral bioavailability
